In US6930130B2, “Citrullimycines, a process for their production and their use as pharmaceuticals” (Aventis Pharma Deutschland GmbH, priority 2000, dated 2005) one finds IC50 data, which are given here for one compound.

The test system of this assay is human neurotensin receptor proteins expressed in HEK cell membranes. The assay can be described thus: SPA [3H] neurotensin receptor binding assay. As to conditions: displacement of 4 nM [3H]neurotensin, 2 hours, room temperature. The text has this: The Citrullimycines according to the invention show inhibition in the neurotensin receptor binding assay of human neurotensin receptor proteins expressed in HEK cell membranes.
SPA [^3H] Neurotensin Receptor Binding Assay
Compounds with an affinity for the neurotensin receptor will displace the binding of [3H] neurotensin, which results in a diminished radioactive signal. In the SPA method, receptors immobilized directly on PVT WGA (Wheat Germ Agglutinin) coated SPA beads (Amersham Pharmacia) bind the radiolabelled ligand. The ligand-receptor complex is held in close enough proximity to stimulate emission of light by the bead. Any unbound radioligand is too distant from the bead to transfer energy and therefore will not be detected.
The samples were pre-diluted 1:5 with assay buffer (50 mM Tris-HCl buffer with 1 mM EDTA, 0.2 mM Bacitracin, and 0.1% BSA, pH 7.4) in deep well plates. The final dilution in the assay was 1:20. 96-well isoplates from Wallac were used for the screening. […]
On each plate, four wells without samples were used to determine the total receptor-ligand binding and another four wells with 1 μM (L-α, γ-diaminobutyryl) neurotensin were used to determine the nonspecific binding respectively. Inhibition activities are expressed as: […]

A word on the IC50: it is the midpoint of a concentration-inhibition curve. The compound `CCC(C)CCC(O)CC(=O)OC(CCC(C)C)CC(=O)NC(CCCNC(N)=O)C(=O)OC(CCC(C)CC)CC(=O)OC(CCC(C)CC)CC(=O)O` (stereo not shown) [Citrullimycine A] showed an IC50 of 16 µM.
